# Patent publication US10105362B2, “Anti-tumor use of anagrelide and derivatives thereof” (SHANGHAI INSTITUTE OF MATERIA MEDICA, CHINESE ACADEMY OF …, priority 2013, dated 2018)
# “Also recorded” adds a separate entry of the source.
# What was measured:
# [1] = tested on: FHCC98 cells; test: MTT colorimetry, tumor cell growth/viability; type: cell-based, human; details: 1 μM, 72 hours
# Protocol: (§1) Logarithmic growth phase cells were seeded in 96-well culture plate in appropriate density (100 μl in each well). After overnight cultivation, different concentrations of drugs were added and treated for 72 h, while three wells were set for each concentration. After treatment was completed, 20 μl/well of MTT (5 mg/ml in PBS) was added to each well and affected for 3-5 hours, the medium was suctioned out completely and 100 ul/well of DMSO was added, oscillated on decolorization shaker in dark place for 10 minutes until the Blue purple crystals formazan (formazan) was completely dissolved, the OD (Optical Density) value was detected with a microplate reader (detection wavelength: […]; reference wavelength: 650 nM). In blank group, culture medium only added without cells, and in control group, DMSO in the same volume as that for drug was added. Cell viability was calculated=(OD value of experimental group−OD value of control group)/(OD value of control group−OD value of blank group). Tumor cells from different tissue source were selected, and the concentration of Anagrelide was 1 μM and 50 μM, OD value was MTT detected after administrated for 72 hours, and the cell viability was calculated using cell viability=(administered group OD-blank group OD)/(control group OD-blank group OD)*100%, and was mapped by using GraphPadPrism 4 software. IC50 values on this seven cell lines of Anagrelide were detect by MTT method, and all of them are less than 100 nM (Table 2).
# [2] = tested on: H4 cells; test: MTT colorimetry, tumor cell growth/viability; type: cell-based, human; details: 1 μM, 72 hours
# Protocol: as §1
# [3] = tested on: SMMC7721 cells; test: MTT colorimetry, tumor cell growth/viability; type: cell-based, human; details: 1 μM, 72 hours
# Protocol: as §1
# [4] = tested on: SW1116 cells; test: MTT colorimetry, tumor cell growth/viability; type: cell-based, human; details: 1 μM, 72 hours
# Protocol: as §1
# [5] = tested on: A498 cells; test: RTCA real-time monitoring of cell growth; type: cell-based, human; details: 100 nM, within 72 hours
# Protocol: (§2) A real-time monitor from Roche was used to detect growth of cells. […] Logarithmic growth phase cells were digested with trypsin, centrifuged and resuspended, and were seeded at 3.5×10^4 /mL per well in 16-well plate matching to cell supporting real-time monitor, and the compound was dosed after 37° C. overnight incubation. Real-time monitoring was used to automatically detect the status of cell growth, and the cell number was reflected by the size of the resistance formed after cell spreading. The larger the cell index value, the faster the cell growth, and the more the number of cells. To further examine Anagrelide inhibition of cell growth, Hela, H4, FHCC98, SMMC7721, BEL7404, A498, SW1116 were taken for further experiment. Through cell real-time monitoring device, real-time monitoring of cell growth status change within 72 hours after Anagrelide administration was conducted (FIG. 3). 3000 cells/100 uL were plated, cultivated overnight, and 100 nM Anagrelide was added. The growth of cells was detected with real-time monitor.
# [6] = tested on: Bel7404 cells; test: RTCA real-time monitoring of cell growth; type: cell-based, human; details: 100 nM, within 72 hours
# Protocol: as §2
# [7] = tested on: FHCC98 cells; test: RTCA real-time monitoring of cell growth; type: cell-based, human; details: 100 nM, within 72 hours
# Protocol: as §2
# [8] = tested on: H4 cells; test: RTCA real-time monitoring of cell growth; type: cell-based, human; details: 100 nM, within 72 hours
# Protocol: as §2
# [9] = tested on: HeLa cells; test: RTCA real-time monitoring of cell growth; type: cell-based, human; details: 100 nM, within 72 hours
# Protocol: as §2
# [10] = tested on: SMMC7721 cells; test: RTCA real-time monitoring of cell growth; type: cell-based, human; details: 100 nM, within 72 hours
# Protocol: as §2
# [11] = tested on: SW1116 cells; test: RTCA real-time monitoring of cell growth; type: cell-based, human; details: 100 nM, within 72 hours
# Protocol: as §2
# [12] = tested on: HeLa cells; test: Cell cycle distribution by PI staining and flow cytometry; type: cell-based, human; details: 100 nM, 24 hours
# Protocol: (§3) Logarithmic growth phase cells were seeded in 6-well culture plate in 5×10^5/mL concentration, 1.5 mL of culture medium in each well, and cultured overnight. Different concentrations of drugs were added to stimulate for a certain time, and then the cells were collected into 1.5 mL EP tube. The cells were washed with cold PBS for 1-2 times, little PBS (about 200 ul) was added and blown to uniform. 1 mL 75% ethanol was pre-cooled (prepared with PBS), and cells was added dropwise into alcohol solution which was oscillated on shaker, fixed under 4° C. overnight. After 1000rpm centrifuged for 5 min, the supernatant was discarded and 1-2 mL PBS was added to wash twice. The cells were suspended with 0.5 mL RnaseA (1.0 mg/ml), and digested under 37° C. for 1 h. The cells were resuspended with 0.5 mL 25 ug/mL PI dye liquor, and were kept in dark place under 4° C. for 30 min. The cells were filtered with 300 mesh sieve, and the cell cycle distribution was analyzed with flow cytometry.
# (§4) In order to determine whether Anagrelide had affected the cell cycle of tumor cells, SMMC7721, HeLa, SW1116 were taken as example to represent sensitive cells and relatively sensitive cells to detect the effect on cell cycle of Anagrelide by PI staining and flow cytometry (FIG. 4 and FIG. 5).
# [13] = tested on: SMMC7721 cells; test: as above; type: cell-based, human; details: 100 nM, 24 hours
# Protocol: as §3, §4
# [14] = tested on: SW1116 cells; test: as above; type: cell-based, human; details: 100 nM, 24 hours
# Protocol: as §3, §4
# [15] = tested on: human H4 transplantation tumor; test: Human H4 transplantation tumor in nude mice, tumor growth; type: in vivo, BALB/c naked mouse; details: for anti-tumor effect (tumor volume, tumor growth): 21 days, vs vehicle control; for tumor weight: end of the experiment (day 21)
# Protocol: (§5) Under aseptic conditions, tumor cells in the proliferation stage were taken. The cell concentration was adjusted after digestion, seeded at right armpit of nude mice, and the inoculated volume was 0.1 mL. Tumor diameter was measured with vernier caliper, after the tumor was grown to 200-300 mm^3, the tumor-bearing mice were selected, and randomly divided into 3 groups (n=4) according to the size of the tumors: negative control group, Anagrelide I (10 mg/kg), Anagrelide II (30 mg/kg). Each group was intragastric administrated, the day of administration was recorded as d1, the negative control group was given same amount of vehicle, and then the long and short diameters of tumor were measured twice a week, while the body weights of mice were weighed. At the 21th day of the administration, the animals were sacrificed and the tumor was dissected and weighed. Before the animals were sacrificed, eyeball was taken for blood sample, the number of white blood cell (WBC), red blood cell (RBC), concentration of hemoglobin (Hb) and number of platelet (PLT) were measured.
# [16] = Blood routine test of tumor-bearing nude mice (WBC, RBC, Hb, PLT); type: in vivo, BALB/c naked mouse; details: day 21, vs vehicle control
# Protocol: as §5
# [17] = tested on: non-sensitive cell lines; test: Growth inhibition of non-sensitive cell lines (summary statement); type: cell-based; details: concentration raised up to 1 mM/L
# [18] = animal experiments, Fleming and Buyniski 1979; cited from earlier work
structure (smiles),measurement,setting,value
"O=C1CN2Cc3c(ccc(Cl)c3Cl)N=C2N1 [Anagrelide, 6,7-dichloro-1,5-dihydro-imidazo [2,1-b] quinazolin-2 (3H)-one]",inhibition of cell growth,[1],significantly inhibited growth
same,inhibition of cell growth,[2],significantly inhibited growth
same,inhibition of cell growth,[3],significantly inhibited growth
same,inhibition of cell growth,[4],significantly inhibited growth
same,"cell growth status, real-time monitoring",[5],"did not cause the cell apoptosis within 72 hours, but the growth was suppressed"
same,"cell growth status, real-time monitoring",[6],"did not cause the cell apoptosis within 72 hours, but the growth was suppressed"
same,"cell growth status, real-time monitoring",[7],ultimately induced the cell death
same,"cell growth status, real-time monitoring",[8],ultimately induced the cell death
same,"cell growth status, real-time monitoring",[9],ultimately induced the cell death
same,"cell growth status, real-time monitoring",[10],ultimately induced the cell death
same,"cell growth status, real-time monitoring",[11],"did not cause the cell apoptosis within 72 hours, but the growth was suppressed"
same,effect on cell cycle (cycle arrest),[12],"a significant G1, G2 cycle arrest was produced; also recorded: the cycle arrest was very strong"
same,effect on cell cycle (cycle arrest),[13],"a significant G1, G2 cycle arrest was produced; also recorded: the cycle arrest was very strong"
same,effect on cell cycle (cycle arrest),[14],a relatively weaker effect of cycle arresting; also recorded: a significant cycle arrest phenomenon was produced
same,"anti-tumor effect (tumor volume, tumor growth)",[15]; 10 mg/kg intragastric,significant anti-tumor effect
same,tumor weight,[15]; 10 mg/kg intragastric,significantly lower than that of the vehicle control group
same,"anti-tumor effect (tumor volume, tumor growth)",[15]; 30 mg/kg intragastric,significant anti-tumor effect
same,tumor weight,[15]; 30 mg/kg intragastric,significantly lower than that of the vehicle control group; also recorded: less than that of Anagrelide I (10 mg/kg) group
same,"blood routine test index (WBC, RBC, Hb, PLT)",[16]; 10 mg/kg intragastric,didn't show any significant decrease
same,"blood routine test index (WBC, RBC, Hb, PLT)",[16]; 30 mg/kg intragastric,didn't show any significant decrease
same,growth inhibition of non-sensitive cell lines,[17],does not have any growth inhibition effect
same,anti-thrombotic function,[18],significant anti-thrombotic function
